Experimental data: PubChem BioAssay (NCI)
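Dose response: 5 concentrations. Exposure: 48 h. Format: 96-well plates. Endpoint: linear interpolation; highest concentration if not reached. At the GI50, growth is halved. TGI: concentration producing complete growth inhibition.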

Columns and labels:
Test in all cases: NCI anticancer screen, dose series, 48 h
SNB-19 CNS = tested on: SNB-19 CNS
CAKI-1 renal = tested on: CAKI-1 renal
HS 578T breast = tested on: HS 578T breast
NCI-H522 lung = tested on: NCI-H522 lung
OVCAR-5 ovarian = tested on: OVCAR-5 ovarian
NCI-H460 lung = tested on: NCI-H460 lung
ACHN renal = tested on: ACHN renal
COLO 205 colon = tested on: COLO 205 colon
SNB-75 CNS = tested on: SNB-75 CNS
U251 CNS = tested on: U251 CNS
M14 melanoma = tested on: M14 melanoma
UACC-257 melanoma = tested on: UACC-257 melanoma
UO-31 renal = tested on: UO-31 renal
SR leukemia = tested on: SR leukemia
KM12 colon = tested on: KM12 colon
SF-295 CNS = tested on: SF-295 CNS
K-562 leukemia = tested on: K-562 leukemia
HT29 colon = tested on: HT29 colon
UACC-62 melanoma = tested on: UACC-62 melanoma
OVCAR-8 ovarian = tested on: OVCAR-8 ovarian
HL-60(TB) leukemia = tested on: HL-60(TB) leukemia
HCT-15 colon = tested on: HCT-15 colon
HOP-62 NSCLC = tested on: HOP-62 NSCLC
OVCAR-4 ovarian = tested on: OVCAR-4 ovarian
HOP-92 NSCLC = tested on: HOP-92 NSCLC
NCI-H23 lung = tested on: NCI-H23 lung
SW-620 colon = tested on: SW-620 colon
SF-268 CNS = tested on: SF-268 CNS
SK-MEL-2 melanoma = tested on: SK-MEL-2 melanoma
SK-MEL-5 melanoma = tested on: SK-MEL-5 melanoma
TK-10 renal = tested on: TK-10 renal
HCT-116 colon = tested on: HCT-116 colon
MCF7 breast = tested on: MCF7 breast
MALME-3M melanoma = tested on: MALME-3M melanoma
SN12C renal = tested on: SN12C renal
OVCAR-3 ovarian = tested on: OVCAR-3 ovarian
LOX IMVI melanoma = tested on: LOX IMVI melanoma
DU-145 prostate = tested on: DU-145 prostate
NCI-H226 lung = tested on: NCI-H226 lung
SK-MEL-28 melanoma = tested on: SK-MEL-28 melanoma
MDA-MB-231 breast = tested on: MDA-MB-231 breast
786-0 renal = tested on: 786-0 renal
CCRF-CEM leukemia = tested on: CCRF-CEM leukemia
RPMI-8226 leukemia = tested on: RPMI-8226 leukemia
RXF 393 renal = tested on: RXF 393 renal
A498 renal = tested on: A498 renal
T-47D breast = tested on: T-47D breast
HCC-2998 colon = tested on: HCC-2998 colon
PC-3 prostate = tested on: PC-3 prostate
SF-539 CNS = tested on: SF-539 CNS
A549 NSCLC = tested on: A549 NSCLC
EKVX NSCLC = tested on: EKVX NSCLC
MDA-MB-435 = tested on: MDA-MB-435

Molecule CCCCNCC(O)c1cc2c(Cl)cc(Cl)cc2c2cc(C(F)(F)F)ccc12 (stereo unspecified) has a GI50 (SNB-19 CNS) of 1820 nM, a TGI (SNB-19 CNS) of 3510 nM and a GI50 (CAKI-1 renal) of 1710 nM. For the same molecule, the TGI (CAKI-1 renal) was 3440 nM, the GI50 (HS 578T breast) was 1590 nM and the TGI (HS 578T breast) was 3670 nM. For the same molecule, the GI50 (NCI-H522 lung) was 1750 nM, the TGI (NCI-H522 lung) was 3350 nM and the GI50 (OVCAR-5 ovarian) was 1560 nM. It also gave a TGI (OVCAR-5 ovarian) of 3080 nM, a GI50 (NCI-H460 lung) of 1680 nM and a TGI (NCI-H460 lung) of 3300 nM. The GI50 (ACHN renal) was 1740 nM, the TGI (ACHN renal) was 3450 nM and the GI50 (COLO 205 colon) was 1780 nM. For the same molecule, the TGI (COLO 205 colon) was 3310 nM, the GI50 (SNB-75 CNS) was 1700 nM and the TGI (SNB-75 CNS) was 3230 nM. It also gave a GI50 (U251 CNS) of 1720 nM, a TGI (U251 CNS) of 3200 nM and a GI50 (M14 melanoma) of 1810 nM. The TGI (M14 melanoma) was 3380 nM, the GI50 (UACC-257 melanoma) was 1830 nM and the TGI (UACC-257 melanoma) was 3510 nM. For the same molecule, the GI50 (UO-31 renal) was 1340 nM, the TGI (UO-31 renal) was 2830 nM and the GI50 (SR leukemia) was 1420 nM. For the same molecule, the TGI (SR leukemia) was 3930 nM, the GI50 (KM12 colon) was 1930 nM and the TGI (KM12 colon) was 3450 nM. The GI50 (SF-295 CNS) was 1850 nM, the TGI (SF-295 CNS) was 3670 nM and the GI50 (K-562 leukemia) was 1610 nM. It also gave a TGI (K-562 leukemia) of 3410 nM, a GI50 (HT29 colon) of 1770 nM and a TGI (HT29 colon) of 3230 nM. The GI50 (UACC-62 melanoma) was 1860 nM, the TGI (UACC-62 melanoma) was 3510 nM and the GI50 (OVCAR-8 ovarian) was 1890 nM. The TGI (OVCAR-8 ovarian) was 3860 nM, the GI50 (HL-60(TB) leukemia) was 1770 nM and the TGI (HL-60(TB) leukemia) was 3610 nM. It also gave a GI50 (HCT-15 colon) of 1790 nM, a TGI (HCT-15 colon) of 4140 nM and a GI50 (HOP-62 NSCLC) of 1770 nM. For the same molecule, the TGI (HOP-62 NSCLC) was 3280 nM, the GI50 (OVCAR-4 ovarian) was 1930 nM and the TGI (OVCAR-4 ovarian) was 3770 nM. For the same molecule, the GI50 (HOP-92 NSCLC) was 1200 nM, the TGI (HOP-92 NSCLC) was 2710 nM and the GI50 (NCI-H23 lung) was 1590 nM. It also gave a TGI (NCI-H23 lung) of 3320 nM, a GI50 (SW-620 colon) of 1690 nM and a TGI (SW-620 colon) of 3220 nM. It also gave a GI50 (SF-268 CNS) of 1840 nM, a TGI (SF-268 CNS) of 3710 nM and a GI50 (SK-MEL-2 melanoma) of 2200 nM. The TGI (SK-MEL-2 melanoma) was 3880 nM, the GI50 (SK-MEL-5 melanoma) was 1710 nM and the TGI (SK-MEL-5 melanoma) was 3100 nM. For the same molecule, the GI50 (TK-10 renal) was 1980 nM, the TGI (TK-10 renal) was 3510 nM and the GI50 (HCT-116 colon) was 1530 nM. The TGI (HCT-116 colon) was 3050 nM, the GI50 (MCF7 breast) was 1480 nM and the TGI (MCF7 breast) was 2960 nM. For the same molecule, the GI50 (MALME-3M melanoma) was 2010 nM, the TGI (MALME-3M melanoma) was 4260 nM and the GI50 (SN12C renal) was 1850 nM. The TGI (SN12C renal) was 3560 nM, the GI50 (OVCAR-3 ovarian) was 1950 nM and the TGI (OVCAR-3 ovarian) was 3460 nM. For the same molecule, the GI50 (LOX IMVI melanoma) was 1660 nM, the TGI (LOX IMVI melanoma) was 3600 nM and the GI50 (DU-145 prostate) was 1890 nM. The TGI (DU-145 prostate) was 3360 nM, the GI50 (NCI-H226 lung) was 1840 nM and the TGI (NCI-H226 lung) was 3720 nM. It also gave a GI50 (SK-MEL-28 melanoma) of 1900 nM, a TGI (SK-MEL-28 melanoma) of 3410 nM and a GI50 (MDA-MB-231 breast) of 1600 nM. The TGI (MDA-MB-231 breast) was 3270 nM, the GI50 (786-0 renal) was 1510 nM and the TGI (786-0 renal) was 3430 nM. It also gave a GI50 (CCRF-CEM leukemia) of 2500 nM, a TGI (CCRF-CEM leukemia) of 5170 nM and a GI50 (RPMI-8226 leukemia) of 2070 nM. The TGI (RPMI-8226 leukemia) was 4720 nM, the GI50 (RXF 393 renal) was 1480 nM and the TGI (RXF 393 renal) was 2850 nM. The GI50 (A498 renal) was 1360 nM, the TGI (A498 renal) was 2700 nM and the GI50 (T-47D breast) was 1740 nM. For the same molecule, the TGI (T-47D breast) was 3800 nM, the GI50 (HCC-2998 colon) was 1490 nM and the TGI (HCC-2998 colon) was 2940 nM. The GI50 (PC-3 prostate) was 1580 nM, the TGI (PC-3 prostate) was 3030 nM and the GI50 (SF-539 CNS) was 1690 nM. For the same molecule, the TGI (SF-539 CNS) was 3440 nM, the GI50 (A549 NSCLC) was 1820 nM and the TGI (A549 NSCLC) was 3400 nM. It also gave a GI50 (EKVX NSCLC) of 1820 nM, a TGI (EKVX NSCLC) of 3610 nM and a GI50 (MDA-MB-435) of 1800 nM. It also gave a TGI (MDA-MB-435) of 3560 nM.
